From ChEMBL document CHEMBL1201862, “PubChem BioAssay data set” (2004)
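Values below derive from 48-hour exposures of cells grown in 96-well plates, with endpoints linearly interpolated between the two concentrations bracketing the appropriate inhibition level. Abbreviation: GI50, concentration required for 50% inhibition of growth.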 Activity calls are given as the source filed them. Cut-off read from the data, not from the text of the source: active = GI50 up to about 1.1 µM and inactive = higher.

How the values were obtained:
Experiment in all cases: NCI-60 cell line screen, 48 h
DLD-1 = tested on: DLD-1
DMS-114 = tested on: DMS-114
KM-20L2 = tested on: KM-20L2
M19-MEL = tested on: M19-MEL
RXF 631 = tested on: RXF 631
BT-549 = tested on: BT-549
HOP-18 = tested on: HOP-18
LXFL 529 = tested on: LXFL 529
MDA-N = tested on: MDA-N

Measured: GI50

CCOC(=O)c1ccc(O)cc1 [ETHYLPARABEN]
inactive: DLD-1 > 100 µM | DMS-114 > 100 µM | KM-20L2 > 100 µM | M19-MEL > 100 µM | RXF 631 > 100 µM

COc1ccc2c(c1)[n+]([O-])c(/C(C)=N/NC(N)=S)c(C)[n+]2[O-]
inactive: BT-549 90.4 µM | DLD-1 57.9 µM | DMS-114 36 µM | HOP-18 95.1 µM | KM-20L2 39.4 µM | LXFL 529 51.6 µM | M19-MEL 86.9 µM | MDA-N 51.3 µM | RXF 631 44.4 µM

NNC(=O)/C(NC(=O)c1ccccc1)=C(\N)c1cccc([N+](=O)[O-])c1
inactive: DLD-1 > 100 µM | DMS-114 > 100 µM | HOP-18 > 100 µM | LXFL 529 > 100 µM | M19-MEL > 100 µM | RXF 631 > 100 µM

CC1=C[C@]2(O)C(=O)[C@H](C)C[C@H]3[C@@H](CC[C@@](C)(O)/C=C\2C1=O)C3(C)C
inactive: DLD-1 17.5 µM | DMS-114 22.6 µM | HOP-18 44.9 µM | KM-20L2 14.5 µM | LXFL 529 16.8 µM | M19-MEL 18.5 µM | RXF 631 31.1 µM

COc1ccc(/C(C=O)=C(\Cl)c2ccc(OC)c(OC)c2)cc1
inactive: DLD-1 15.6 µM | DMS-114 81.3 µM | HOP-18 > 100 µM | KM-20L2 > 100 µM | LXFL 529 > 100 µM | M19-MEL > 100 µM | RXF 631 > 100 µM

COc1cccc2c1C(=O)c1c(O)c3c(c(O)c1C2=O)C[C@@](O)(C(C)=O)CC3S(=O)(=O)O (some centres undefined)
inactive: DLD-1 > 100 µM | DMS-114 > 100 µM | HOP-18 > 100 µM | KM-20L2 > 100 µM | LXFL 529 > 100 µM | M19-MEL > 100 µM | RXF 631 > 100 µM

O=C1c2ccccc2C(=O)C1(O)c1c[nH]c2ccccc12
inactive: DLD-1 > 100 µM | DMS-114 > 100 µM | KM-20L2 > 100 µM | LXFL 529 > 100 µM | M19-MEL > 100 µM | RXF 631 > 100 µM

NC1=NN(c2ccccc2)C(=O)C1C(=O)C(=O)Nc1ccc(Cl)cc1 (centres undefined)
inactive: DLD-1 > 100 µM | DMS-114 > 100 µM | HOP-18 > 100 µM | KM-20L2 > 100 µM | LXFL 529 > 100 µM | M19-MEL > 100 µM | RXF 631 > 100 µM

COc1ccccc1/N=N/c1c(-c2ccccc2)nn(C(=O)CC(=O)Nc2ccccc2Cl)c1-c1ccccc1
inactive: DLD-1 > 100 µM | DMS-114 > 100 µM | HOP-18 > 100 µM | KM-20L2 > 100 µM | LXFL 529 > 100 µM | M19-MEL > 100 µM

N#CC(Nc1cccc(C(F)(F)F)c1)c1ccccc1C(F)(F)F (centres undefined)
inactive: DLD-1 15.9 µM | DMS-114 8.91 µM | HOP-18 13.5 µM | KM-20L2 13.8 µM | LXFL 529 6.17 µM | M19-MEL 7.23 µM

C=CCCC(=O)CC(=O)OCc1ccccc1
inactive: DLD-1 > 100 µM | DMS-114 > 100 µM | HOP-18 > 100 µM | KM-20L2 > 100 µM | LXFL 529 > 100 µM | M19-MEL > 100 µM | RXF 631 > 100 µM

CCC1CN2CCC3(c4ccccc4)CC(C(=O)OC)=CC1C23 (centres undefined)
inactive: DLD-1 17.2 µM | HOP-18 14.9 µM | KM-20L2 16.3 µM | LXFL 529 15.4 µM | M19-MEL 17.1 µM | RXF 631 15 µM

CC(C)c1cccc(C(C)C)c1NC(=O)C(=O)C1CCC2=C(Sc3ccccc3N2)C1=O (centres undefined)
inactive: DLD-1 > 100 µM | DMS-114 52.8 µM | HOP-18 > 100 µM | KM-20L2 86.3 µM | LXFL 529 44.2 µM | M19-MEL > 100 µM | RXF 631 4.18 µM

Cc1ccc(SC(CCC(Sc2ccc(C)cc2)Sc2ccc(C)cc2)Sc2ccc(C)cc2)cc1
inactive: DLD-1 > 100 µM | DMS-114 > 100 µM | KM-20L2 > 100 µM | M19-MEL > 100 µM | RXF 631 > 100 µM

O=C(O)CSc1ccc2nc3ccccc3c(O)c2c1
inactive: DLD-1 > 100 µM | DMS-114 > 100 µM | HOP-18 > 100 µM | KM-20L2 > 100 µM | LXFL 529 > 100 µM | M19-MEL > 100 µM

CC(C)[C@@H](C)CC[C@@H](C)C1CC=C2[C@@H]3CCC4C[C@@H](O[Si](C)(C)C(C)(C)C)CC[C@]4(C)C3CC[C@@]21C (some centres undefined)
inactive: DMS-114 > 100 µM | HOP-18 > 100 µM | KM-20L2 > 100 µM | LXFL 529 > 100 µM | M19-MEL > 100 µM | RXF 631 > 100 µM

O=C(/C=C/c1c(O)ccc2ccccc12)c1cccc2ccccc12
inactive: DLD-1 > 79.4 µM | DMS-114 > 59.7 µM | HOP-18 58.6 µM | KM-20L2 > 100 µM | LXFL 529 > 83.6 µM | M19-MEL 26.1 µM

O=S(O)c1cc(Cl)c(O)c(Cl)c1
inactive: DLD-1 > 100 µM | DMS-114 > 100 µM | LXFL 529 > 100 µM | M19-MEL > 100 µM | RXF 631 > 100 µM

CCC1=C(C(C)=O)[C@@H]2CCCCC[C@@H](C(=O)OC)C2C1=O (some centres undefined)
inactive: DLD-1 > 100 µM | DMS-114 > 100 µM | HOP-18 57.9 µM | KM-20L2 > 100 µM | LXFL 529 > 100 µM | M19-MEL > 100 µM

CCOC(=O)C(=O)Nc1cc(Cl)ccc1Cl
inactive: DLD-1 > 100 µM | DMS-114 > 100 µM | HOP-18 > 100 µM | KM-20L2 > 100 µM | LXFL 529 > 100 µM | M19-MEL > 100 µM

CCCCCCCC(=O)OC[C@@H](C[As](=O)(O)O)OC(=O)CCCCCCC
inactive: DLD-1 13.6 µM | DMS-114 10.4 µM | HOP-18 18.2 µM | KM-20L2 16.9 µM | LXFL 529 11.9 µM | M19-MEL 14.9 µM

CC(C)c1cccc2sc(NC(=O)C(=O)C(C#N)c3cccc4ccccc34)nc12 (centres undefined)
inactive: DLD-1 98.6 µM | DMS-114 40.4 µM | HOP-18 61.2 µM | KM-20L2 > 100 µM | LXFL 529 73.1 µM | M19-MEL 91.4 µM | RXF 631 > 100 µM
